Source: ChEMBL document CHEMBL1201862, “PubChem BioAssay data set” (2004)
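Each compound was tested at five concentrations against cells in 96-well plates for 48 hours. GI50 is the concentration that inhibits growth by half.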 Activity calls are given as the source filed them. Cut-off read from the data, not from the text of the source: active = GI50 up to about 1.1 µM and inactive = higher.

How the values were obtained:
Test in all cases: DTP human tumour cell line panel, 48 h
UO-31 = system: UO-31
IGROV-1 = system: IGROV-1
SK-MEL-5 = system: SK-MEL-5
SK-MEL-28 = system: SK-MEL-28
HCC 2998 = system: HCC 2998
MDA-MB-435 = system: MDA-MB-435
K562 = system: K562
BT-549 = system: BT-549
ACHN = system: ACHN
MDA-MB-231 = system: MDA-MB-231
PC-3 = system: PC-3
Malme-3M = system: Malme-3M
COLO 205 = system: COLO 205
CAKI-1 = system: CAKI-1
RXF 393 = system: RXF 393
DU-145 = system: DU-145
OVCAR-5 = system: OVCAR-5
NCI-H460 = system: NCI-H460
M14 = system: M14
SK-MEL-2 = system: SK-MEL-2
HCT-116 = system: HCT-116
A498 = system: A498
UACC-257 = system: UACC-257
HCT-15 = system: HCT-15
UACC-62 = system: UACC-62
HOP-92 = system: HOP-92
SR = system: SR
CCRF-CEM = system: CCRF-CEM
SF-268 = system: SF-268
SW-620 = system: SW-620
OVCAR-3 = system: OVCAR-3
OVCAR-4 = system: OVCAR-4
SN12C = system: SN12C
MCF7 = system: MCF7
NCI-H23 = system: NCI-H23
SK-OV-3 = system: SK-OV-3
SNB-19 = system: SNB-19
SF-539 = system: SF-539
LOX IMVI = system: LOX IMVI
HOP-62 = system: HOP-62
SF-295 = system: SF-295
NCI-H522 = system: NCI-H522
786-0 = system: 786-0
U-251 = system: U-251
NCI-H226 = system: NCI-H226
HT-29 = system: HT-29
Hs-578T = system: Hs-578T
SNB-75 = system: SNB-75
TK-10 = system: TK-10
A549 = system: A549
NCI/ADR-RES = system: NCI/ADR-RES
MDA-N = system: MDA-N
OVCAR-8 = system: OVCAR-8
MOLT-4 = system: MOLT-4
RPMI-8226 = system: RPMI-8226
KM12 = system: KM12
EKVX = system: EKVX
HL-60 = system: HL-60

## O=c1[nH]c(Nc2nc3ccccc3[nH]2)nc(O)c1-c1ccccc1
UO-31
  GI50: > 100 µM (inactive)
IGROV-1
  GI50: > 100 µM (inactive)
SK-MEL-5
  GI50: > 100 µM (inactive)
SK-MEL-28
  GI50: > 100 µM (inactive)
HCC 2998
  GI50: > 100 µM (inactive)
MDA-MB-435
  GI50: > 100 µM (inactive)
K562
  GI50: > 100 µM (inactive)
BT-549
  GI50: > 100 µM (inactive)
ACHN
  GI50: > 100 µM (inactive)
MDA-MB-231
  GI50: > 100 µM (inactive)
PC-3
  GI50: > 100 µM (inactive)
Malme-3M
  GI50: > 100 µM (inactive)
COLO 205
  GI50: > 100 µM (inactive)
CAKI-1
  GI50: > 100 µM (inactive)
RXF 393
  GI50: > 100 µM (inactive)
DU-145
  GI50: > 100 µM (inactive)
OVCAR-5
  GI50: > 100 µM (inactive)
NCI-H460
  GI50: > 100 µM (inactive)
M14
  GI50: > 100 µM (inactive)
SK-MEL-2
  GI50: > 100 µM (inactive)
HCT-116
  GI50: > 100 µM (inactive)
A498
  GI50: > 100 µM (inactive)
UACC-257
  GI50: > 100 µM (inactive)
HCT-15
  GI50: > 100 µM
UACC-62
  GI50: > 100 µM (inactive)
HOP-92
  GI50: > 100 µM (inactive)
SR
  GI50: > 100 µM (inactive)
CCRF-CEM
  GI50: > 100 µM (inactive)
SF-268
  GI50: > 100 µM (inactive)
SW-620
  GI50: > 100 µM (inactive)
OVCAR-3
  GI50: > 100 µM (inactive)
OVCAR-4
  GI50: > 100 µM (inactive)
SN12C
  GI50: > 100 µM (inactive)
MCF7
  GI50: > 100 µM (inactive)
NCI-H23
  GI50: > 100 µM (inactive)
SK-OV-3
  GI50: > 100 µM (inactive)
SNB-19
  GI50: > 100 µM (inactive)
SF-539
  GI50: > 100 µM (inactive)
LOX IMVI
  GI50: > 100 µM (inactive)
HOP-62
  GI50: > 100 µM (inactive)
SF-295
  GI50: > 100 µM (inactive)
NCI-H522
  GI50: > 100 µM (inactive)
786-0
  GI50: > 100 µM (inactive)
U-251
  GI50: 82.2 µM (inactive)
NCI-H226
  GI50: > 100 µM (inactive)
HT-29
  GI50: > 100 µM (inactive)
Hs-578T
  GI50: 72.3 µM (inactive)
SNB-75
  GI50: > 100 µM (inactive)
TK-10
  GI50: > 100 µM (inactive)
A549
  GI50: > 100 µM (inactive)
NCI/ADR-RES
  GI50: > 100 µM (inactive)
MDA-N
  GI50: > 100 µM (inactive)
OVCAR-8
  GI50: > 100 µM (inactive)

## NC(Cc1ccc(O)cn1)C(=O)O (stereo unspecified)
UO-31
  GI50: > 100 µM (inactive)
IGROV-1
  GI50: > 100 µM (inactive)
SK-MEL-5
  GI50: > 100 µM (inactive)
SK-MEL-28
  GI50: > 100 µM (inactive)
MOLT-4
  GI50: > 100 µM (inactive)
HCC 2998
  GI50: > 100 µM (inactive)
MDA-MB-435
  GI50: 84.1 µM (inactive)
K562
  GI50: > 100 µM (inactive)
BT-549
  GI50: > 100 µM (inactive)
ACHN
  GI50: > 100 µM (inactive)
MDA-MB-231
  GI50: > 100 µM (inactive)
PC-3
  GI50: > 100 µM (inactive)
Malme-3M
  GI50: > 100 µM (inactive)
COLO 205
  GI50: > 100 µM (inactive)
CAKI-1
  GI50: > 100 µM (inactive)
RPMI-8226
  GI50: > 100 µM (inactive)
RXF 393
  GI50: > 100 µM (inactive)
KM12
  GI50: > 100 µM (inactive)
DU-145
  GI50: > 100 µM (inactive)
OVCAR-5
  GI50: > 100 µM (inactive)
NCI-H460
  GI50: > 100 µM (inactive)
HCT-116
  GI50: > 100 µM (inactive)
A498
  GI50: > 100 µM (inactive)
UACC-257
  GI50: > 100 µM (inactive)
HCT-15
  GI50: > 100 µM
HOP-92
  GI50: > 100 µM (inactive)
SR
  GI50: > 100 µM (inactive)
SF-268
  GI50: > 100 µM (inactive)
SW-620
  GI50: > 100 µM (inactive)
OVCAR-3
  GI50: > 100 µM (inactive)
OVCAR-4
  GI50: > 100 µM (inactive)
SN12C
  GI50: > 100 µM (inactive)
MCF7
  GI50: > 100 µM (inactive)
EKVX
  GI50: > 100 µM (inactive)
NCI-H23
  GI50: > 100 µM (inactive)
SNB-19
  GI50: > 100 µM (inactive)
SF-539
  GI50: > 100 µM (inactive)
HL-60
  GI50: 33.8 µM (inactive)
LOX IMVI
  GI50: > 100 µM (inactive)
HOP-62
  GI50: > 100 µM (inactive)
SF-295
  GI50: > 100 µM (inactive)
NCI-H522
  GI50: > 100 µM (inactive)
786-0
  GI50: > 100 µM (inactive)
U-251
  GI50: 35.2 µM (inactive)
NCI-H226
  GI50: > 100 µM (inactive)
HT-29
  GI50: > 100 µM (inactive)
Hs-578T
  GI50: 4.19 µM (inactive)
SNB-75
  GI50: > 100 µM (inactive)
TK-10
  GI50: > 100 µM (inactive)
A549
  GI50: > 100 µM (inactive)
NCI/ADR-RES
  GI50: > 100 µM (inactive)
MDA-N
  GI50: > 100 µM (inactive)
OVCAR-8
  GI50: > 100 µM (inactive)
